Assay: xn = mol fraction of the nth substance listed
Details: 101 kPa, Liquid; for mass density: Pycnometric method

CCOCCOCCOCCO [2-(2-(2-ethoxyethoxy)ethoxy)ethanol] + O
Details	mass density, 313.15 K [kg/m3]	mass density, 323.15 K [kg/m3]	mass density, 333.15 K [kg/m3]	viscosity, 313.15 K [mPa·s]	viscosity, 323.15 K [mPa·s]	viscosity, 333.15 K [mPa·s]
x1 = 0.01119	–	995.1	989.6	0.9341	0.7411	0.6117
x1 = 0.02492	–	1002.1	995.7	1.261	1.013	0.8193
x1 = 0.04128	–	1008.7	1001.9	1.747	1.369	1.092
x1 = 0.06284	–	1014.4	1006.2	2.429	1.859	1.433
x1 = 0.09179	–	1017.4	1008.5	3.265	2.436	1.853
x1 = 0.1317	–	1018.1	1008.7	4.072	3.015	2.252
x1 = 0.1905	–	1016.8	1007.3	4.899	3.558	2.652
x1 = 0.2885	–	1012.7	1003.1	5.382	3.942	2.923
x1 = 0.4019	–	1007.7	998.5	5.391	3.965	3.006
x1 = 0.4747	–	1005.2	996.1	5.226	3.885	2.953
x1 = 0.6076	–	1001.6	992.5	4.953	3.735	2.879
x1 = 0.7399	–	998.8	989.8	4.586	3.552	2.774
x1 = 0.8176	–	997.6	988.6	4.457	3.509	2.728
x1 = 0.8956	1005.1	996.6	987.7	4.315	3.437	2.697
x1 = 1	1003.9	995.5	986.7	4.185	3.326	2.627
